Measurements published in patent US20170015640A1, “USE OF ARYLALKANOLAMINES AS SIGMA-1 RECEPTOR ANTAGONISTS” (Università degli studi di Pavia, priority 2014, published 2017).

Key:
σ-1 receptors = target: T1, σ-1 receptors (Rattus norvegicus, UniProt Q9R0C9); test: Growth of NGF-induced neurite outgrowths in PC12 cells (agonist/antagonist profile); format: cell-based; details: FIG. 6
T1 construct: performed on rat pheochromocytoma cells (PC12 cells); endogenous in cells; host or cells: PC12 rat pheochromocytoma cells
T1 sequence (Q9R0C9 whole entry): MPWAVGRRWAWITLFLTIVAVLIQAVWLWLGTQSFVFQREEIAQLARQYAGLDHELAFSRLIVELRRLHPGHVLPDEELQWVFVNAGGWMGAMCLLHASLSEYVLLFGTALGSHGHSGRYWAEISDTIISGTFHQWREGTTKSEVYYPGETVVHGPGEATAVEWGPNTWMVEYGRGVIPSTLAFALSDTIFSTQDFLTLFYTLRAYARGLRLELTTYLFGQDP
Protocol: Evaluation of the growth of neurite outgrowths induced by neuronal growth factor (NGF).
Evaluation of the growth of NGF-induced neurite outgrowths was performed on rat pheochromocytoma cells (PC12 cells), conventionally used as a model of neuronal study.
This method constitutes a reliable model for evaluating the agonist/antagonist profile of low molecular weight compounds on the o receptors. In particular, it has been reported that σ-1 agonists potentiate the growth of NGF-induced neurite outgrowths in PC12 cells. In contrast, σ-1 antagonists oppose the action of the agonists, leading to a reduction in NGF-induced growth (Rossi D. et al., “identification of a potent and selective σ1 receptor agonist potentiating NGF-induced neurite outgrowth in PC12 cells”, Bioorg. Med. Chem. 2011, 19, 6210-6224).
The cell culturing PC12 cells, the method for quantifying the growth of neurite outgrowths and the cytotoxicity test were performed as described by Rossi D. et al. in Bioorg. Med. Chem. 2011 cited above.
Statistical analysis of the data obtained was performed using the two-way analysis of variants (ANOVA) method and the Tukey post-hoc test. Values of p<0.05 were considered as being statistically significant.
The results, expressed as the mean value ±standard error of mean (SEM), represent the percentage of cells showing neurite growth. […]

[1] = In vitro metabolic stability in rat plasma; format: in vitro ADME; details: 37° C., FIG. 7(A)
Protocol: (§1) The metabolic stability studies were performed using biological matrices (plasma, blood and S9 fraction of liver) obtained from various animal species.
(§2) The biological matrices and the analysis method were arranged according to the process described by Rossi D. et al. in “Identification of RC-33 as a potent and selective al receptor agonist potentiating NGF-induced neurite outgrowth in PC12 cells. Part 2: g -scale synthesis, physicochemical characterization and in vitro metabolic stability” (Bioorg. Med. Chem. 2013, 21, 2577-2586).
(§3) For each biological matrix, suitable solutions were prepared to perform the test, as described below.
(§4) 10 μL of a stock solution of compound 1 in dimethyl sulfoxide (DMSO) were incubated with each matrix (total reaction volume 1 mL) in a mixer thermostatically maintained at 37° C. for […]. 50 μL aliquots were taken from each reaction mixture and sampled in duplicate at 5, 10, 15, 30, 60, 120 and 240 minutes to determine the reaction kinetics. […] The supernatant was analysed by means of an Acquity Waters ultra-fast liquid chromatography system, interfaced with a photodiode array detector (UPLC/UV/PAD) to obtain the concentration of the test compound at each of the said times. […]
(§5) The results, obtained from three independent experiments and expressed as the mean value ±standard deviation (SD), are given in FIGS. 8 and 9.

[2] = In vitro metabolic stability in dog plasma; format: in vitro ADME; details: 37° C., FIG. 7(A)
Protocol: as §1, §2, §3, §4, §5

[3] = In vitro metabolic stability in human plasma; format: in vitro ADME; details: 37° C., FIG. 7(A)
Protocol: as §1, §2, §3, §4, §5

[4] = In vitro metabolic stability in mouse blood; format: in vitro ADME; details: 37° C., FIG. 7(B)
Protocol: as §1, §2, §3, §4, §5

[5] = In vitro metabolic stability in rat blood; format: in vitro ADME; details: 37° C., FIG. 7(B)
Protocol: as §1, §2, §3, §4, §5

[6] = In vitro metabolic stability in S9 fraction of rat liver; format: in vitro ADME
Protocol: as §1, §2, §3, §4, §5

[7] = In vitro metabolic stability in S9 fraction of human liver; format: in vitro ADME
Protocol: as §1, §2, §3, §4, §5

[8] = In vitro metabolic stability, overall conclusion over biological matrices; format: in vitro ADME, various animal species
Protocol: as §1, §2, §3, §4, §5

male ICR mice = test: Formalin test (animal model of inflammatory pain); format: in vivo, mouse; details: intraperitoneal, even at a dose of 1 mg/kg, 30 min before 2% formalin, FIG. 9
Protocol: The formalin test is an animal model of inflammatory pain widely used and known in the literature.
32 male ICR mice weighing 25 grams were divided into 4 groups of 8 mice each.
The vehicle alone, which consisted of a mixture of dimethyl sulfoxide (DMSO), castor oil Cremophor® EL (BASF) and distilled water, in a 10/10/80 ratio, was administered to the control group (CTR).
Compound 1 was dissolved in the same vehicle and administered at the following doses: • group 1, 1 mg/kg; • group 2, 10 mg/kg; and • group 3, 20 mg/kg.
All the administrations took place by intraperitoneal injection. Thirty minutes after the administration, all the mice were subjected to an injection with 20 uL of a 2% formalin solution subcutaneously, into a paw.
The injection of formalin induces a two-phase nociceptive response, in other words, within the first 5-10 minutes of the administration of formalin, the first nociceptive phase is manifested, followed by a phase of quiescence and by the second nociceptive phase which is manifested 20-30 minutes after the administration of formalin.
The nociceptive response was recorded by evaluating the time that each mouse spent licking or biting its paw which received the injection. […]

σ-1 receptor = σ-1 receptor (Cavia porcellus, UniProt Q60492); test: biochemical
Chain of σ-1 receptor (Q60492 whole entry): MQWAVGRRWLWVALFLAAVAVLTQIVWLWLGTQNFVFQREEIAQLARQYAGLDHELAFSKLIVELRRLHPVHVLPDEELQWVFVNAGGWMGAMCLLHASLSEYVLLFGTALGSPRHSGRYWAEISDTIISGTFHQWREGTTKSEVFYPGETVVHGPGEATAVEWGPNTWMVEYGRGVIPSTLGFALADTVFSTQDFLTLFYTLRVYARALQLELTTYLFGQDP
Description: The IC50 values obtained from three independent experiments were transformed into the respective affinity constants (Ki), using the Cheng-Prusoff equation.

| percentage of cells with growth of neurite outgrowths (σ-1 receptors; reference group (PRE) relative to control group (NGF)) | SMILES | effect on agonist-potentiated growth of NGF-induced neurite outgrowths (σ-1 receptors; σ-1 agonist plus 2.5 μM of compound (group A)) | metabolization in rat plasma [1] | metabolization in dog plasma [2] | metabolization in human plasma [3] | metabolization in mouse blood [4] | metabolization in rat blood [5] | metabolization in S9 fraction of rat liver ([6]; absence of NADPH, FIG. 8(A)) | metabolization in S9 fraction of rat liver ([6]; presence of NADPH, FIG. 8(B)) | metabolization in S9 fraction of human liver ([7]; absence of NADPH, FIG. 8(A)) | metabolization in S9 fraction of human liver ([7]; presence of NADPH, FIG. 8(B)) | in vitro metabolic stability [8] | reduction of inflammatory pain (time spent licking or biting the paw) (male ICR mice) | Ki (σ-1 receptor) |
| --- | --- | --- | --- | --- | --- | --- | --- | --- | --- | --- | --- | --- | --- | --- |
| – | OCC(CCN1CCCCC1)c1ccc(-c2ccccc2)cc1 (centres unmarked) [Compound 1, 4-(N-piperidinyl)-2-(4-diphenyl)butanol] | appreciably opposed the effect of the agonist compound | insignificant | insignificant | insignificant | insignificant | insignificant | insignificant | substantial metabolization | insignificant | substantial metabolization | high | effective in reducing inflammatory pain | 6.2 nM |
| increased significantly | Cl.O=C(OCCN1CCOCC1)C1(c2ccccc2)CCCCC1 [PRE, 2-(4-morpholinoethyl)-1-phenylcyclohexanecarboxylate hydrochloride, reference compound] | – | – | – | – | – | – | – | – | – | – | – | – | – |
